Assay results as given in patent US20040019066A1, “Methionine salvage pathway in bacillus” (priority 2002, published 2004).
“Also recorded” adds a separate entry of the source.

System: B. subtilis 168 and mtn region mutants
Test: Growth on MTR as sole sulfur source (ED1 minimal medium plates)
Format: cell-based, Bacillus subtilis
Experimental: Panel A: ED1 minimal mediums plate with 1 mM IPTG containing 0.2 mM MTR as sole sulfur source WT, metI (BSIP 1143), mtnS (BSHP7010), mtnK (BFS1850), mtnU (BFS1851), mtnV (BSHP7020), mtnW (BSHP7014), mtnX (BFS1852), mtnY (BSHP7016) and mtnZ (BFS 1853) were inoculated for over-night growth at 37° C. No growth of mtnS, mtnK, mtnW and mtnY is represented by an example of absence of growth around a disc with MTR of mtnY mutant in panel B. Normal growth of […] and mtnX is represented by an example of normal growth around a disc with MTR of mtnV mutant in panel C.
Using the collection of mutants constructed during the Bacillus subtilis functional analysis, program (http://locus.jouy.inra.fr/cgi-bin/genmic/madbase/progs/madbase.oper] and http://bacillus.genome.adjp, [9]) and constructing mutants which were not available in the collection, we tested all genes in the region for their phenotype of growth on MTR as the sole sulfur source.
Bacterial strains and plasmids, and growth media: E. coli and B. subtilis strains as well as plasmids used in this work are listed in Table 3. E. coli TG1 and XL1-Blue were used for cloning experiments (TG1 for single cross-over recombination and XL1-Blue for double cross-over recombination). Despite the fact that there are no public regulations yet in this domain in China, all experiments were performed in accordance with the European regulation requirements concerning the contained use of Genetically Modified Organisms of Group-I (French agreement N^o 2735). E. coli and B. subtilis were grown in Luria-Bertani (LB) medium and in ED minimal medium: K2HPO4, 8 mM; KH2PO4, 4,4 mM; glucose, 27 mM; Na3-citrate, 0.3 mM; L-glutamine, 15 mM; L-tryptophan, 0.244 mM; ferric citrate, 33.5 μM; MgSO4, 2 mM; MgCl2, 0.61 mM; CaCl2, 49.5 μM; FeCl3, 49.9 μM; MnCl2, 5.05 μM; ZnCl2, 12.4 μM; CuCl2, 2.52 μM; CoCl2, 2.5 μM; Na2MoO4, 2.48 μM. When methionine was used as sulfur source (1 mM), MgSO4 was replaced by MgCl2 at the same magnesium concentration (2 mM). For assaying growth on plates, either the MgSO4 containing medium or the sulfur-free basal medium was used (MgSO4 was replaced by MgCl2 as described above). In the latter case, 10 [μl of the sulfur source under investigation was applicated onto paper discs (MTR, 200 mM stock solution and methionine, 100 mM stock solution) deposited at the center of the plate, after bacteria had been uniformly spread at the surface of the plate, and growth was measured around the disK. In some cases MTR was used directly in the plate as sulfur source (0.2 mM). When necessary IPTG was included at 1 mM concentration. When xylose was added to the medium (0.5%) in order to trigger the expression of genes under the control of Pxyl inducible promoter, fructose was used as carbon source instead of glucose. LB and ED plates were prepared by addition of 17 g/liter Bacto agar or Agar Noble (Difco), respectively, to the medium. When included, antibiotics were added to the following concentrations: ampicillin, 100 mg/liter; chloramphenicol, 50 mg/liter; spectinomycin, 100 mg/liter; erythromycin plus lincomycin, 1 mg/liter and 25 mg/liter. Bacteria were grown at 37° C. The optical density (OD) of bacterial cultures was measured at 600 nm. MTR was prepared from MTA (Sigma, D5011) by acid hydrolysis as described by Schlenk. 3-fluoromethythiorybose (3F-MM, 5-thio-5-5-S-trifluoromethyl-D-ribose) was synthesised accordingly to [6, 20]. When added directly to the ED1 medium plate, 3F-MTR was used at 100 mg/liter concentration and when applicated onto paper discs 100 mM stock solution was used. For anaerobic growth on plates, the Anaerocult A (Merck) within an anaerobiosis jar for CO2 production with simultanious O2 absorbtion was used. Sulfur-free ED1 minimal medium plates were supplemented to 1% glucose final concentration and with 0.5% sodium pyruvate and 20 mM sodium nitrate as electron acceptor. Plates were incubated at 37° C. for 4 days with the sulfur source under investigation.

Compound: CSC[C@@H](O)[C@@H](O)[C@@H](O)C=O [MTR, methylthioribose]
- Growth on MTR as sole sulfur source (Wild type strain 168, + O2, four days): normal growth after four days
- Growth on MTR as sole sulfur source (Wild type strain 168, anaerobic growth, nitrate as electron acceptor, four days (table row printed '+ O2')): failed to grow; also recorded: no growth after four days
- Use of MTR as the methionine source (methionine auxotrophs): can be used as the methionine source
- Growth on MTR as sole sulfur source (mtnK mutant, strain BFS1850): no growth; also recorded: failed to grow
- Growth on MTR as sole sulfur source (mtnS mutant, strain BSHP7010): no growth; also recorded: failed to grow
- Growth on MTR as sole sulfur source (mtnU mutant, strain BFS1851): failed to grow; also recorded: no growth (numerous revertants)
- Growth on MTR as sole sulfur source (mtnV mutant, strain BSHP7020): normal growth; also recorded: no visible effect on growth
- Growth on MTR (mtnW inactivated with a polar effect on the distal genes): lack of growth
- Growth on MTR as sole sulfur source (mtnW mutant, strain BSHP7014 (downstream genes expressed)): no growth; also recorded: failed to grow
- Growth on MTR as sole sulfur source (mtnX mutant, strain BFS1852, IPTG added): normal growth; also recorded: recovered its growth properties
- Growth on MTR as sole sulfur source (mtnY mutant, strain BSHP7016): no growth; also recorded: failed to grow
- Growth on MTR as sole sulfur source (mtnZ mutant, strain BFS1853): partial growth; also recorded: very weak (residual) growth; also recorded: very weak, residual growth; also recorded: weak residual growth
